Calls of active or inactive are those of the source.
These molecules were tested against Serine/threonine-protein kinase 26 (Homo sapiens, UniProt Q9P289).
Chain of Serine/threonine-protein kinase 26 (Q9P289 whole entry): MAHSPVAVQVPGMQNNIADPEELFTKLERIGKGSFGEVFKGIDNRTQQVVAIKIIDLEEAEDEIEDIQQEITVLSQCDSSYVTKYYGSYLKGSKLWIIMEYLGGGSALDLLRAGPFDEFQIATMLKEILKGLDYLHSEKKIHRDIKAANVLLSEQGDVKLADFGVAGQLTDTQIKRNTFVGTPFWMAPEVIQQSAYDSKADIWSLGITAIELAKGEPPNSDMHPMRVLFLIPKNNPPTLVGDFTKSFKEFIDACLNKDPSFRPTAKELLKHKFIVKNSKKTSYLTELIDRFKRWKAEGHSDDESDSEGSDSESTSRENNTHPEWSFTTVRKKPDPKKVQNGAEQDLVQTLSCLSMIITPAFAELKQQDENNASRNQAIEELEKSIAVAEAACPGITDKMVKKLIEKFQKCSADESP
O=C(c1ccc(F)c(F)c1Nc1ccc(I)cc1F)N1CC(O)([C@@H]2CCCCN2)C1 [COBIMETINIB] was tested, and the Kd was > 30 µM (inactive). With Cn1cc(-c2ccc(F)c(C(F)(F)F)c2)nc1C1CCN(c2ncnc3[nH]ncc23)CC1 [LY-2584702] the Kd was > 30 µM (inactive). In the case of C1=C/COCc2cc(ccc2OCCN2CCCC2)Nc2nccc(n2)-c2cccc(c2)COC/1 [PACRITINIB], the Kd is reported as > 30 µM (inactive). With C=CC(=O)N1CCC(Oc2cc3c(Nc4ccc(Cl)c(Cl)c4F)ncnc3cc2OC)CC1 [POZIOTINIB] the Kd was > 30 µM (inactive).

Each molecule was assayed against cAMP-dependent protein kinase catalytic subunit gamma (Homo sapiens, UniProt P22612).
Chain of cAMP-dependent protein kinase catalytic subunit gamma (P22612 whole entry): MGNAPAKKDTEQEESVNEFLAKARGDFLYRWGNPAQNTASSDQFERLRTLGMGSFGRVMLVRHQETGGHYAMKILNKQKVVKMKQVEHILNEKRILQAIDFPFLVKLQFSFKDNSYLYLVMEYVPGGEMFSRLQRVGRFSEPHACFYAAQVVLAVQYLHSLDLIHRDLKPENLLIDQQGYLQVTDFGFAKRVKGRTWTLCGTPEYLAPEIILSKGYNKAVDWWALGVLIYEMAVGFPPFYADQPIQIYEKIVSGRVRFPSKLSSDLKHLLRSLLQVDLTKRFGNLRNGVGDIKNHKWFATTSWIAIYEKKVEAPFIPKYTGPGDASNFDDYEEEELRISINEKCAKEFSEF
For O=C(c1ccc(F)c(F)c1Nc1ccc(I)cc1F)N1CC(O)([C@@H]2CCCCN2)C1 [COBIMETINIB], the Kd was > 30 µM (inactive). Cn1cc(-c2ccc(F)c(C(F)(F)F)c2)nc1C1CCN(c2ncnc3[nH]ncc23)CC1 [LY-2584702] was tested, and the Kd was > 30 µM (inactive). C1=C/COCc2cc(ccc2OCCN2CCCC2)Nc2nccc(n2)-c2cccc(c2)COC/1 [PACRITINIB] was tested, and the Kd was > 30 µM (inactive). In the case of C=CC(=O)N1CCC(Oc2cc3c(Nc4ccc(Cl)c(Cl)c4F)ncnc3cc2OC)CC1 [POZIOTINIB], the Kd is reported as > 30 µM (inactive).

Each molecule was assayed against T1, Ribosyldihydronicotinamide dehydrogenase [quinone] (Homo sapiens, UniProt P16083).
T1 sequence (P16083 whole entry): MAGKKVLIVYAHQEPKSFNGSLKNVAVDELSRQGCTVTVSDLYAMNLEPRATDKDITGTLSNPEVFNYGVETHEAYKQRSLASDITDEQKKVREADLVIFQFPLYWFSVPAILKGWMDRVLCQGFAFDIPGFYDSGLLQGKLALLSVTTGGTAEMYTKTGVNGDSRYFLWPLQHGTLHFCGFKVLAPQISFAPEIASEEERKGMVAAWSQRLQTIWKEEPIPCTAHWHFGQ
O=C(c1ccc(F)c(F)c1Nc1ccc(I)cc1F)N1CC(O)([C@@H]2CCCCN2)C1 [COBIMETINIB] was tested, and the Kd was > 30 µM (inactive). In the case of Cn1cc(-c2ccc(F)c(C(F)(F)F)c2)nc1C1CCN(c2ncnc3[nH]ncc23)CC1 [LY-2584702], the Kd is reported as > 30 µM (inactive). In the case of C=CC(=O)N1CCC(Oc2cc3c(Nc4ccc(Cl)c(Cl)c4F)ncnc3cc2OC)CC1 [POZIOTINIB], the Kd is reported as > 30 µM (inactive).

What follows are molecules tested against Bone morphogenetic protein receptor type-1A (Homo sapiens, UniProt P36894).
Chain of Bone morphogenetic protein receptor type-1A (P36894 whole entry): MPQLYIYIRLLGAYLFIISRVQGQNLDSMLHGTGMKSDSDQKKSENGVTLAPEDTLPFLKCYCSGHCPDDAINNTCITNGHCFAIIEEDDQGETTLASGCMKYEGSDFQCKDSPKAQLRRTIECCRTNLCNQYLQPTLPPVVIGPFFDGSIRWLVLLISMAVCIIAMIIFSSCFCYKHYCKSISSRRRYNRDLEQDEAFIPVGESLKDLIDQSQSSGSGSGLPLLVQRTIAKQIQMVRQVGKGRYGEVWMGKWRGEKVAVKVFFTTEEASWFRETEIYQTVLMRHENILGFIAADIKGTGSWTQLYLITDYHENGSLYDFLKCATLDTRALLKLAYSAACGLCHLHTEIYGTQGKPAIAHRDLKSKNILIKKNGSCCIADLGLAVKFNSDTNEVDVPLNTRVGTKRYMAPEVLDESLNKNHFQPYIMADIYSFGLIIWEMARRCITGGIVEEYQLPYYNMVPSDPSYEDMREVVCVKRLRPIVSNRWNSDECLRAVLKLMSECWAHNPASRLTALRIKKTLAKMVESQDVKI
With O=C(c1ccc(F)c(F)c1Nc1ccc(I)cc1F)N1CC(O)([C@@H]2CCCCN2)C1 [COBIMETINIB] the Kd was > 30 µM (inactive). In the case of Cn1cc(-c2ccc(F)c(C(F)(F)F)c2)nc1C1CCN(c2ncnc3[nH]ncc23)CC1 [LY-2584702], the Kd is reported as > 30 µM (inactive). C1=C/COCc2cc(ccc2OCCN2CCCC2)Nc2nccc(n2)-c2cccc(c2)COC/1 [PACRITINIB] was tested, and the Kd was > 30 µM (inactive). C=CC(=O)N1CCC(Oc2cc3c(Nc4ccc(Cl)c(Cl)c4F)ncnc3cc2OC)CC1 [POZIOTINIB] was tested, and the Kd was > 30 µM (inactive).

These molecules were tested against T2, ADP/ATP translocase 2 (Homo sapiens, UniProt P05141).
T2 sequence (P05141 whole entry): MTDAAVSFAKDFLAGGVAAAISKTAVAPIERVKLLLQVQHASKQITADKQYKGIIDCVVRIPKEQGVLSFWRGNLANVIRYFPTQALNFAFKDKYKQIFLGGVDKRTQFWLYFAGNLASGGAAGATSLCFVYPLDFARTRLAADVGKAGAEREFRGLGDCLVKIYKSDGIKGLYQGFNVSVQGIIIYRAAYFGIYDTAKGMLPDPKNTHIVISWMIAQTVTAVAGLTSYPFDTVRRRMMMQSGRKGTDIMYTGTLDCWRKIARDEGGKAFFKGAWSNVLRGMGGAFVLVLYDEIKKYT
O=C(c1ccc(F)c(F)c1Nc1ccc(I)cc1F)N1CC(O)([C@@H]2CCCCN2)C1 [COBIMETINIB] was tested, and the Kd was > 30 µM (inactive). In the case of Cn1cc(-c2ccc(F)c(C(F)(F)F)c2)nc1C1CCN(c2ncnc3[nH]ncc23)CC1 [LY-2584702], the Kd is reported as > 30 µM (inactive). For C1=C/COCc2cc(ccc2OCCN2CCCC2)Nc2nccc(n2)-c2cccc(c2)COC/1 [PACRITINIB], the Kd was > 30 µM (inactive). C=CC(=O)N1CCC(Oc2cc3c(Nc4ccc(Cl)c(Cl)c4F)ncnc3cc2OC)CC1 [POZIOTINIB] was tested, and the Kd was > 30 µM (inactive).

The molecules below were run against Actin-related protein 2 (Homo sapiens, UniProt P61160).
With Cn1cc(-c2ccc(F)c(C(F)(F)F)c2)nc1C1CCN(c2ncnc3[nH]ncc23)CC1 [LY-2584702] the Kd was > 30 µM (inactive).

Each molecule was assayed against T3, Structural maintenance of chromosomes protein 1A (Homo sapiens, UniProt Q14683).
T3 sequence (Q14683 whole entry): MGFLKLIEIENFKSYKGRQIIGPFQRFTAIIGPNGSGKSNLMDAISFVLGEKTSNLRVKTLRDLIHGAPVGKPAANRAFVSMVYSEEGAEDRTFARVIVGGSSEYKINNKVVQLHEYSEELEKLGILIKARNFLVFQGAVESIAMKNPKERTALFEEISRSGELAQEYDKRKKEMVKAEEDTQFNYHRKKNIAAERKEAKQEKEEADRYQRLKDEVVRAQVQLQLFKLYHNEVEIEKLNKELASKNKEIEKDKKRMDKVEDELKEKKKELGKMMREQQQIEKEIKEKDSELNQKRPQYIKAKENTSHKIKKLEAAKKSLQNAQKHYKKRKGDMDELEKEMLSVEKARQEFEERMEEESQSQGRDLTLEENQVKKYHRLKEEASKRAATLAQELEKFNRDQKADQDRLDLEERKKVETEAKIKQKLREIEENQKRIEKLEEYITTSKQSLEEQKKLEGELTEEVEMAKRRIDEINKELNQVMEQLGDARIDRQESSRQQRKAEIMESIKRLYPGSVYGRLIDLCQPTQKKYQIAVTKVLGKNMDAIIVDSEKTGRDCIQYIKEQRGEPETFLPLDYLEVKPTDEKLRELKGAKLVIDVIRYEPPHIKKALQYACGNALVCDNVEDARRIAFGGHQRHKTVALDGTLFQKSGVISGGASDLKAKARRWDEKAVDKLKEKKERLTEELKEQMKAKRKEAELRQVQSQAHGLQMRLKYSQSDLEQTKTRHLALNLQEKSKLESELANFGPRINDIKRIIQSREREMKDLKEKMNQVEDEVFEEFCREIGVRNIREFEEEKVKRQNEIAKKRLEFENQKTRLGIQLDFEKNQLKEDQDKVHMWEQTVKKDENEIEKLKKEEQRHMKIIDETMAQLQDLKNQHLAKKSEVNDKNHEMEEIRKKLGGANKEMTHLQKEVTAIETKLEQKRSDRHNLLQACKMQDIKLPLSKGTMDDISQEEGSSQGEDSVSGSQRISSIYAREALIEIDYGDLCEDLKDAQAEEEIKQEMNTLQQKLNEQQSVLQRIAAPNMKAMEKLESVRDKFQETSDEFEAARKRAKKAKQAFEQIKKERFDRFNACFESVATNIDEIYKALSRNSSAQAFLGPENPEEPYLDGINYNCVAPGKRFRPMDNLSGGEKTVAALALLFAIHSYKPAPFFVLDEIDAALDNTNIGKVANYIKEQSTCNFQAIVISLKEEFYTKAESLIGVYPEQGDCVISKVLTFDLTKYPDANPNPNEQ
For O=C(c1ccc(F)c(F)c1Nc1ccc(I)cc1F)N1CC(O)([C@@H]2CCCCN2)C1 [COBIMETINIB], the Kd was > 30 µM (inactive). For C1=C/COCc2cc(ccc2OCCN2CCCC2)Nc2nccc(n2)-c2cccc(c2)COC/1 [PACRITINIB], the Kd was > 30 µM (inactive). With C=CC(=O)N1CCC(Oc2cc3c(Nc4ccc(Cl)c(Cl)c4F)ncnc3cc2OC)CC1 [POZIOTINIB] the Kd was > 30 µM (inactive).

These molecules were tested against Serine/threonine-protein kinase/endoribonuclease IRE1 (Homo sapiens, UniProt O75460).
Chain of Serine/threonine-protein kinase/endoribonuclease IRE1 (O75460 whole entry): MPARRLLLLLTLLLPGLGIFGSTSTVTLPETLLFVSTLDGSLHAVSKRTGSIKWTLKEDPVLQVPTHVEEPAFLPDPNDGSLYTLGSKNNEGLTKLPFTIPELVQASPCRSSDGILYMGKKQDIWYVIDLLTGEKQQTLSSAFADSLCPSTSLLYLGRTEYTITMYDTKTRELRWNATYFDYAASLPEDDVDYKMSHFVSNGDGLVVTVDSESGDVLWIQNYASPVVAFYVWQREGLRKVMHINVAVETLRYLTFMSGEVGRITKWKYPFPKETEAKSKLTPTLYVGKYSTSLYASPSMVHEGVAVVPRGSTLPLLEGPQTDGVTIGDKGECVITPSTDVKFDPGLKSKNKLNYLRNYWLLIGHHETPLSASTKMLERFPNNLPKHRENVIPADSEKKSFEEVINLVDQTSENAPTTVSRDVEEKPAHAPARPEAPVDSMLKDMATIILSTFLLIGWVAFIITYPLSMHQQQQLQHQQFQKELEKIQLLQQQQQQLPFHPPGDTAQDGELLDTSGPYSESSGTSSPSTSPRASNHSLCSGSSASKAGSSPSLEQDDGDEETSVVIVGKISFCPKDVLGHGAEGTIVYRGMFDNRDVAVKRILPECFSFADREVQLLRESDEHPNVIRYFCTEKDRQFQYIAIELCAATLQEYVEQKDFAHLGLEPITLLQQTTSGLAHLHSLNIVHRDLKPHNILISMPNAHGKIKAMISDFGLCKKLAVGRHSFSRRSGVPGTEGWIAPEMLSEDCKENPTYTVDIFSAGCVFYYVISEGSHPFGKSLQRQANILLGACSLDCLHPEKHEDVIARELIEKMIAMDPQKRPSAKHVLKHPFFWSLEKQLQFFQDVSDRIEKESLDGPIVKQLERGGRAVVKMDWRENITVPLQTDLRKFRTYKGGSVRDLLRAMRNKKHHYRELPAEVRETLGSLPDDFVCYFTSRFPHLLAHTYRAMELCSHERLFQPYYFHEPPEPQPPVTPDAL
With O=C(c1ccc(F)c(F)c1Nc1ccc(I)cc1F)N1CC(O)([C@@H]2CCCCN2)C1 [COBIMETINIB] the Kd was > 30 µM (inactive). Cn1cc(-c2ccc(F)c(C(F)(F)F)c2)nc1C1CCN(c2ncnc3[nH]ncc23)CC1 [LY-2584702] was tested, and the Kd was > 30 µM (inactive). In the case of C1=C/COCc2cc(ccc2OCCN2CCCC2)Nc2nccc(n2)-c2cccc(c2)COC/1 [PACRITINIB], the Kd is reported as > 30 µM (inactive). C=CC(=O)N1CCC(Oc2cc3c(Nc4ccc(Cl)c(Cl)c4F)ncnc3cc2OC)CC1 [POZIOTINIB] was tested, and the Kd was > 30 µM (inactive).

The molecules below were run against Casein kinase II subunit alpha' (Homo sapiens, UniProt P19784).
Chain of Casein kinase II subunit alpha' (P19784 whole entry): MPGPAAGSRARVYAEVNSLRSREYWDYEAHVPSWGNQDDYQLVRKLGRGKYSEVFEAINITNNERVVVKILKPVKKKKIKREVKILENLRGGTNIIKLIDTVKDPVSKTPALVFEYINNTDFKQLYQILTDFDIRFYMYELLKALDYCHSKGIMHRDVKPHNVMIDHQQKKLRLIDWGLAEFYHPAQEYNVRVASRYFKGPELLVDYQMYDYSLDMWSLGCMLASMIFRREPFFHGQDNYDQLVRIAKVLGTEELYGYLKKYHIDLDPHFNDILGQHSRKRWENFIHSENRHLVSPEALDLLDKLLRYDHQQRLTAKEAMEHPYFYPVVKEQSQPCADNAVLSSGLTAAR
With O=C(c1ccc(F)c(F)c1Nc1ccc(I)cc1F)N1CC(O)([C@@H]2CCCCN2)C1 [COBIMETINIB] the Kd was > 30 µM (inactive). For Cn1cc(-c2ccc(F)c(C(F)(F)F)c2)nc1C1CCN(c2ncnc3[nH]ncc23)CC1 [LY-2584702], the Kd was > 30 µM (inactive). For C1=C/COCc2cc(ccc2OCCN2CCCC2)Nc2nccc(n2)-c2cccc(c2)COC/1 [PACRITINIB], the Kd was 0.394 µM (active).

Each molecule was assayed against T4, Probable ATP-dependent RNA helicase DDX6 (Homo sapiens, UniProt P26196).
T4 sequence (P26196 whole entry): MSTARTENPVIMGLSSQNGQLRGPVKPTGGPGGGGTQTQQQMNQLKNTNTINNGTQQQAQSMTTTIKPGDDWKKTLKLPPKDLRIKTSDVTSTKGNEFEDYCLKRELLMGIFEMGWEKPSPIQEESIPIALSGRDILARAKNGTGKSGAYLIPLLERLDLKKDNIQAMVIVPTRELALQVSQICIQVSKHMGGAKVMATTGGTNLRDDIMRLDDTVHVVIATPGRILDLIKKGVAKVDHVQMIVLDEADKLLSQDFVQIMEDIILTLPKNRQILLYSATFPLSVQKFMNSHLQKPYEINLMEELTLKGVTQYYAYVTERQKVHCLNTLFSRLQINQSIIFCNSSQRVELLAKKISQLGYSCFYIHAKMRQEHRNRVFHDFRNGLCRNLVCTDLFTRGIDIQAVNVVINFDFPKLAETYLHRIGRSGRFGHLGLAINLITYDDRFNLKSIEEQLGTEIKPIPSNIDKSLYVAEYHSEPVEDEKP
For O=C(c1ccc(F)c(F)c1Nc1ccc(I)cc1F)N1CC(O)([C@@H]2CCCCN2)C1 [COBIMETINIB], the Kd was > 30 µM (inactive). With Cn1cc(-c2ccc(F)c(C(F)(F)F)c2)nc1C1CCN(c2ncnc3[nH]ncc23)CC1 [LY-2584702] the Kd was > 30 µM (inactive). C1=C/COCc2cc(ccc2OCCN2CCCC2)Nc2nccc(n2)-c2cccc(c2)COC/1 [PACRITINIB] was tested, and the Kd was > 30 µM (inactive). C=CC(=O)N1CCC(Oc2cc3c(Nc4ccc(Cl)c(Cl)c4F)ncnc3cc2OC)CC1 [POZIOTINIB] was tested, and the Kd was > 30 µM (inactive).

— ChEMBL document CHEMBL3991601, “The target landscape of clinical kinase drugs” (Science, 2017)
Note: in the data inactive means no Kd found up to 30 µM.
